Source: article PMC6609541, “Enterohepatic circulation of glucuronide metabolites of drugs in dog” (Pharmacology Research & Perspectives, 2019)
Read-outs that look alike come from different tables or passages of the source.

How the values were obtained:
Assay type in all cases: in vitro ADME
[1] = target: T1, human wild‐type P‐gp (Homo sapiens, UniProt P08183); experiment: Bi‐directional transport across MDCKII cells expressing human P‐gp; parameters: key to Pgp substrate: S, substrate; NS, non‐substrate; conditions: for PappA‐B / PappB‐A: 5 µmol/L compound; for P‐gp substrate: P‐gp‐transfected MDCKII cells; for P‐gp substrate / MDCK permeability (passive membrane permeability): in words; for Pgp substrate: classified from net efflux ratio (NER >3.0 = substrate); for Net efflux ratio: uninhibited ratio divided by inhibited ratio, NER >3.0 = P‐gp substrate
T1 construct: host or cells: MDCKII
T1 sequence (P08183 whole entry): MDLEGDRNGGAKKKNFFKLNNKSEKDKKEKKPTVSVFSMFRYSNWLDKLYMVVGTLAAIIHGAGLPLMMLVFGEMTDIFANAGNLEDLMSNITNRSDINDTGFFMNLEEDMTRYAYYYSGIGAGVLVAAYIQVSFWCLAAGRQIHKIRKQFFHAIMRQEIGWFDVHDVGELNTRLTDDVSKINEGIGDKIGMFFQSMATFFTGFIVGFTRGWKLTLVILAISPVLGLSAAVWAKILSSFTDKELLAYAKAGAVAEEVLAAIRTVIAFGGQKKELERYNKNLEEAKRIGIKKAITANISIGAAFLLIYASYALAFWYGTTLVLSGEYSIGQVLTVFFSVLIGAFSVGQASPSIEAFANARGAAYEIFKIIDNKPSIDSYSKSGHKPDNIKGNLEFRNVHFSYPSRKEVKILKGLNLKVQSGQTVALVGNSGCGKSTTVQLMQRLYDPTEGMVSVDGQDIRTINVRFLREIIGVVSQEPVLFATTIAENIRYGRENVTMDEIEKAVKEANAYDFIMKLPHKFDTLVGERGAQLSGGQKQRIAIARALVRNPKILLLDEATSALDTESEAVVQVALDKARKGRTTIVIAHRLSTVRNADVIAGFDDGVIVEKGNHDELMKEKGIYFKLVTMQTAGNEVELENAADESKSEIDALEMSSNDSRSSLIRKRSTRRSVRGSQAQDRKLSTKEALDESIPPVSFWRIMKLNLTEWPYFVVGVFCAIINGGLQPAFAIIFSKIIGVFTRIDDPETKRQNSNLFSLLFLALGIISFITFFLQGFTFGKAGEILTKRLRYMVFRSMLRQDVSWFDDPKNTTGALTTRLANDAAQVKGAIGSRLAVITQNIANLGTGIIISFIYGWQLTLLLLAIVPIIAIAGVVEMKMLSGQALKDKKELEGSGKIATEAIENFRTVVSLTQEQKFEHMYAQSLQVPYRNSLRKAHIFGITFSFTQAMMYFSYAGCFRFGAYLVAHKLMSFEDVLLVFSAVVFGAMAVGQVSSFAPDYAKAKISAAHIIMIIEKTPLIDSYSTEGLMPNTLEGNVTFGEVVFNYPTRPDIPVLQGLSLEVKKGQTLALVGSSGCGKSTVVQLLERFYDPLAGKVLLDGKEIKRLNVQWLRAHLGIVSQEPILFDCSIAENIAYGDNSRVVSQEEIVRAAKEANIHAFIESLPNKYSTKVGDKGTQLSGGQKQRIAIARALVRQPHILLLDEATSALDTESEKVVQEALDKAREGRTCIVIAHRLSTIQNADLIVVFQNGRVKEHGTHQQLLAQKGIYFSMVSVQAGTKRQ
Procedure: MDCKII cells stably expressing human wild‐type P‐gp were obtained from the Netherlands Cancer Institute Amsterdam, The Netherlands). MDCK cells were maintained and the assay was conducted essentially as described previously.12, 13 Transport was measured in both directions across uninhibited and inhibited cell monolayers using a substrate concentration of 5 μmol/L diluted from a 10 mmol/L DMSO stock solution final DMSO concentration of 0.05%) and a single 60‐min time interval.

[2] = tested on: UGT; experiment: Liver microsomal glucuronidation assay (human); conditions: human liver microsomes, pH 7.5, with 2% BSA
Procedure: (§1) Intrinsic clearance of the compounds by glucuronidation was conducted in human and dog liver and kidney microsomes. Microsomes (0.5 mg/mL) with or without 2% bovine serum albumin (BSA), 100 mmol/L Tris‐HCl buffer, (pH 7.5), containing 5 mmol/L MgCl2 and 50 µg of alamethicin were mixed and placed on ice for 15 minutes. Canagliflozin or DPTQ (2 µmol/L final concentration) were added, and the mixture was pre‐incubated at 37°C for 3 minutes. A 0‐minute time point was obtained and the reaction initiated by the addition of UDPGA (5 mmol/L final concentration). Aliquots of the incubation (50 µL) were removed at various time points 5, 15, 30, 60 and 120 minutes, and added to the quench solution (1:1 acetonitrile:water). The zero minute time points were also quenched in the same manner. Substrate concentrations were then measured by LC/MS and the intrinsic clearance values (μL/min/mg protein) were calculated using following equation. CLint=-kdep×incubation volume/mg protein
(§2) In which the depletion rate constant (k dep) is the slope determined using linear regression from the log transformed % remaining on the y‐axis vs time on the x‐axis (min^− ^1). […] To determine the unbound intrinsic clearances the microsomal Clint values were divided by the respective microsomal fraction unbound values. The microsomal unbound fraction both with and without 2% BSA was determined as described previously.15

[3] = tested on: UGT (glucuronidation); experiment: Liver microsomal glucuronidation assay (human); conditions: liver microsomes, pH 7.5, with 2% BSA, Clint divided by microsomal unbound fraction, read-out: Clint,u, Liver microsomes
Procedure: as §1, §2

[4] = Hepatocyte intrinsic clearance with and without ABT (human); conditions: cryopreserved human hepatocytes, human hepatocytes, 0.3 µmol/L compound
Procedure: (§3) The intrinsic clearance was determined in cryopreserved dog and human hepatocytes essentially as described previously.4 The assay incubation contained 0.3 µmol/L compound and hepatocytes at a concentration of 10^6 cells/mL, with and without 30 minutes pre‐incubation of 1 mmol/L ABT. Intrinsic clearance measurement was initiated by the addition of compound and the incubation quenched at 0.6, 15, 30, 60 and 90 minutes for DPTQ, and at 0.6, 15, 30, 60, 120 and 240 minutes by addition of acetonitrile with 0.1% formic acid. Samples were centrifuged at 3500 g for 10 minutes and the supernatant was analyzed to quantify parent compound loss and the intrinsic clearance values (μL/min/10^6 cells) were calculated using following equation for incubations with and without ABT. CLint=-kdep×incubation volume/10^6cells
(§4) In which the depletion rate constant (k dep) is the slope determined using linear regression from the log transformed percentage remaining on the y‐axis vs time on the x‐axis (min^− ^1). The fraction of metabolism (fm) by P450 was determined by the measurement of the percentage of inhibition of Clint by ABT.

[5] = tested on: cryopreserved human hepatocytes; experiment: as above; conditions: for % of inhibition by ABT: human hepatocytes, inhibition of Clint by 1 mmol/L ABT (fm by P450); for Hepatic fm by UGT: human, in hepatocytes
Procedure: as §3, §4

[6] = MDR1‐MDCKII_inhibitor (2.5 µmol/L P‐gp inhibitor LSN335984)
[7] = with 1 mmol/L ABT, 30 minutes pre-incubation, 1 mmol/L ABT pre‐incubation 30 minutes, read-out: Clint with ABT
[8] = 10^6 cells/mL, read-out: Clint without ABT

SMILES	PappB‐A/PappA‐B ([1]; MDR1‐MDCKII_control)	PappA‐B ([1]; MDR1‐MDCKII_control)	PappB‐A ([1]; MDR1‐MDCKII_control)	PappB‐A/PappA‐B ([1]; MDR1‐MDCKII_inhibitor)	PappA‐B [1, 6]	PappB‐A [1, 6]	P‐gp substrate [1]	P‐gp substrate ([1]; listed as canagliflozin)	Pgp substrate [1]	MDCK permeability (passive membrane permeability) [1]	MDCK permeability (passive membrane permeability) ([1]; listed as canagliflozin)	Net efflux ratio [1]	Net efflux ratio ([1]; listed as canagliflozin)	microsomal CLint at 2 µmol/L [2] [µL/min/mg]	microsomal CLint at 2 µmol/L [3] [µL/min/mg]	hepatocyte CLint at 0.3 µmol/L [4, 7] [µL/min/1e6 cells]	hepatocyte CLint at 0.3 µmol/L [4, 8] [µL/min/1e6 cells]	% of inhibition by ABT [5] [%]	Hepatic fm by UGT [5]
Cc1ccc([C@@H]2O[C@H](CO)[C@@H](O)[C@H](O)[C@H]2O)cc1Cc1ccc(-c2ccc(F)cc2)s1 [Canagliflozin]	22	4.0 ± 1.8 10^–6cm/s	89.2 ± 8.2 10^–6cm/s	1.3	10.8 ± 1.4 10^–6cm/s	14.1 ± 0.1 10^–6cm/s	yes	P‐gp substrate	S	Moderate	moderate	17.1	> 3	7.6	422	10.1 ± 1.4	12.7 ± 2	20.1 ± 5.1	High (high 70%‐100% in hepatocytes)
C[C@H]1c2cccc(CC(C)(C)O)c2C[C@H](CO)N1C(=O)Cc1c(Cl)cccc1Cl [DPTQ, 2‐(2,6‐dichlorophenyl)‐1‐((1S,3R)‐5‐(2‐hydroxy‐2‐methylpropyl)‐3‐(hydroxymethyl)‐1‐methyl‐3,4‐dihydroisoquinolin‐2(1H)‐yl)ethan‐1‐one]	1.5	43.0 ± 4.5 10^–6cm/s	62.6 ± 2.6 10^–6cm/s	1.1	48.9 ± 5.9 10^–6cm/s	53.5 ± 0.4 10^–6cm/s	not a P‐gp substrate and no		NS	high and High				5.6	47.1	5.5 ± 2.2	5.8 ± 2	7.8 ± 9.6	High (high 70%‐100% in hepatocytes)
